US8153165B2, “Preparation and use for reducing the damaging effect of ammonia on organisms living in water” (Tetra GmbH, priority 2006, dated 2012)

What was measured:
[1] = NH3 concentration ranges common in keeping water; cited from earlier work
[2] = system: types of fish common in aquariums (acute toxicity of ammonia); test: Behavior of aquarium fish in water with 1000 μmol/l of total ammonia, with and without preparation; format: in vivo; conditions: for reduction of the acute toxicity of ammonia in water animals, in particular ornamental fish: in vivo
Source text: In aquariums holding 50 liters, the aquarium water was set to the following values:
Metered addition of a NH4Cl solution set to pH 8.2 predetermined a total ammonia concentration of 1000 μmol/l.
The aquariums were stocked with types of fish common in aquariums: • Xiphosphorus maculatus • Brachydanio rerio • Paracheirodon innesi • Rasbora heteromorpha • Colisa lalia • Papiliochromis ramirezi • Melanochromis splendida • Megalamphodus sweglesi • Corydoras spec
Only about 30% of the test fish behaved normal. […] The behavioral pattern observed persisted over 48-72 h, i.e. 2-3 days.
In the following tables, the average values of the behavior of all types of fish are represented averaged depending on the time and dose of glyoxal.2NaHSO3: (Comparison: control with 1000 μmol/l of total ammonia without treatment)

[3] = system: fish and other water organisms; test: Compatibility of the adduct alone; format: in vivo
Experimental: The adduct alone is very well compatible for fish and other water organisms up to high concentrations of 140 mg/l.

[4] = Stability of liquid product formulations; format: physicochemical; conditions: extended pH range between pH 3 and 9
[5] = Chemical changes in the keeping water (pH, carbonate hardness); format: physicochemical
Source text: The positive effect may originate from the preparation itself, wherein, for example glyoxal.2NaHSO3 acts as a protecting agent in the gill area. The second possibility is an indirect effect by influencing the water chemistry, which again results in a shift of the NH3/NH4^+ equilibrium. Glyoxal-2NaHSO3 causes two different chemical changes in the keeping water:
1. pH reduction by up to 0.5 units, which persists considerably longer than with state of the art preparations and products, for example a reduction by 0.3 pH units up to 72 hours following the dose.
2. […] This surprising chemical behavior, too, is not found with state of the art products or preparations.

Structure (SMILES): O=S(=O)([O-])CO.[Na+] [sodium hydroxymethanesulfonate]
- reduction in the ammonia concentration [1]: Neither a reduction in the ammonia concentration
- reduction of the NH3 toxicity [1]: nor a, however disposed, reduction of the NH3 toxicity could be observed

Structure (SMILES): O=S(=O)([O-])C(O)CC(O)S(=O)(=O)[O-].[Na+].[Na+] (centres unmarked) [NaHSO3 bisadduct of malondialdehyde]
- reduction of the acute toxicity of ammonia in water animals, in particular ornamental fish [2]: show the desired reduction of the acute toxicity of ammonia

Structure (SMILES): O=S(=O)([O-])C(O)C(O)S(=O)(=O)[O-].[Na+].[Na+] (centres unmarked) [glyoxal•2NaHSO3, NaHSO3 bisadduct of glyoxal]
- concentration up to which the adduct alone is very well compatible for fish and other water organisms [3]: ≤ 140 µg/mL
- stability of the liquid product formulations [4]: good stability
- behavior of the test fish following addition of the preparation ([2]; 1000 μmol/l of total ammonia, only about 30% normal without preparation): the majority of the test fish behaved normal and showed no signs of damage by ammonia
- Normal behavior show % of the test fish ([2]; Table A, 35 mg/l single dose, 0 hrs (before dose), 1000 μmol/l total ammonia): 89%
- Normal behavior show % of the test fish ([2]; Table A, 35 mg/l single dose, 2 hrs): 67%
- Normal behavior show % of the test fish ([2]; Table A, 35 mg/l single dose, 5 hrs): 67%
- Normal behavior show % of the test fish ([2]; Table A, 35 mg/l single dose, 9 hrs): 67%
- Normal behavior show % of the test fish ([2]; Table A, 35 mg/l single dose, 23 hrs): 56%
- Normal behavior show % of the test fish ([2]; Table A, 35 mg/l single dose, 29 hrs): 67%
- Normal behavior show % of the test fish ([2]; Table A, 35 mg/l single dose, 46 hrs): 67%
- Normal behavior show % of the test fish ([2]; Table A, 35 mg/l single dose, 54 hrs): 56%
- Normal behavior show % of the test fish ([2]; Table A, 35 mg/l single dose, 72 hrs): 44%
- Normal behavior show % of the test fish ([2]; Table B, 130 mg/l single dose, 0 hrs (before dose), 1000 μmol/l total ammonia): 100%
- Normal behavior show % of the test fish ([2]; Table B, 130 mg/l single dose, 2 hrs): 78%
- Normal behavior show % of the test fish ([2]; Table B, 130 mg/l single dose, 4 hrs): 78%
- Normal behavior show % of the test fish ([2]; Table B, 130 mg/l single dose, 8 hrs): 78%
- Normal behavior show % of the test fish ([2]; Table B, 130 mg/l single dose, 24 hrs): 78%
- Normal behavior show % of the test fish ([2]; Table B, 130 mg/l single dose, 48 hrs): 100%
- Normal behavior show % of the test fish ([2]; Table C, three-time dose 35 mg/l every 72 hours, 0 hrs (before doses)): 100%
- Normal behavior show % of the test fish ([2]; Table C, three-time dose 35 mg/l every 72 hours, 2 hrs): 78%
- Normal behavior show % of the test fish ([2]; Table C, three-time dose 35 mg/l every 72 hours, 4 hrs): 78%
- Normal behavior show % of the test fish ([2]; Table C, three-time dose 35 mg/l every 72 hours, 5 hrs): 78%
- Normal behavior show % of the test fish ([2]; Table C, three-time dose 35 mg/l every 72 hours, 24 hrs): 67%
- Normal behavior show % of the test fish ([2]; Table C, three-time dose 35 mg/l every 72 hours, 72 hrs (before 2nd dose)): 78%
- Normal behavior show % of the test fish ([2]; Table C, three-time dose 35 mg/l every 72 hours, 74 hrs): 67%
- Normal behavior show % of the test fish ([2]; Table C, three-time dose 35 mg/l every 72 hours, 96 hrs): 89%
- Normal behavior show % of the test fish ([2]; Table C, three-time dose 35 mg/l every 72 hours, 5 days after the 3rd dose (i.e. 11 days)): 89%
- Normal behavior show % of the test fish ([2]; Table C, three-time dose 35 mg/l every 72 hours, 120 hrs): 89%
- Normal behavior show % of the test fish ([2]; Table C, three-time dose 35 mg/l every 72 hours, 144 hrs (before 3rd dose)): 89%
- Normal behavior show % of the test fish ([2]; Table C, three-time dose 35 mg/l every 72 hours, 145 hrs): 100%
- Normal behavior show % of the test fish ([2]; Table C, three-time dose 35 mg/l every 72 hours, 168 hrs): 89%
- Normal behavior show % of the test fish ([2]; Table C, three-time dose 35 mg/l every 72 hours, 192 hrs): 100%
- Normal behavior show % of the test fish ([2]; Table D comparison, glyoxal•2NaHSO3 35 mg/l, product doses not given, 0 hrs (before dose)): 89%
- Normal behavior show % of the test fish ([2]; Table D comparison, glyoxal•2NaHSO3 35 mg/l, product doses not given, 2 hrs): 67%
- Normal behavior show % of the test fish ([2]; Table D comparison, glyoxal•2NaHSO3 35 mg/l, product doses not given, 5 hrs): 67%
- Normal behavior show % of the test fish ([2]; Table D comparison, glyoxal•2NaHSO3 35 mg/l, product doses not given, 8.5 hrs): 67%
- Normal behavior show % of the test fish ([2]; Table D comparison, glyoxal•2NaHSO3 35 mg/l, product doses not given, 22.5 hrs): 56%
- Normal behavior show % of the test fish ([2]; Table D comparison, glyoxal•2NaHSO3 35 mg/l, product doses not given, 29 hrs): 67%
- Normal behavior show % of the test fish ([2]; Table D comparison, glyoxal•2NaHSO3 35 mg/l, product doses not given, 46 hrs): 67%
- Normal behavior show % of the test fish ([2]; Table D comparison, glyoxal•2NaHSO3 35 mg/l, product doses not given, 54 hrs): 56%
- Normal behavior show % of the test fish ([2]; Table D comparison, glyoxal•2NaHSO3 35 mg/l, product doses not given, 72 hrs): 44%
- percentage of test fish with normal behavior versus control without treatment ([2]; during the first 48 hours, 35 mg/l and 130 mg/l): significantly higher percentage of the test fish shows normal behavior than in the control test
- reduction of the acute toxicity of ammonia in water animals, in particular ornamental fish [2]: especially effective
- acute toxicity of ammonia to fish ([2]; on addition of 5-140 mg/l, preferably 10-50 mg/l): clearly reduced
- time over which the behavioral pattern observed persisted ([2]; single dose, 1000 μmol/l of total ammonia): 48 to 72 h
- time after which the carbonate hardness reduction sets in [5]: about 24 hours
- time the carbonate hardness reduction lasts [5]: up to 72 hours
- Reduction of the carbonate hardness ([5]; keeping water): 0.5-0.60 dH
- pH reduction in the keeping water ([5]; maximum): up to 0.5 units
- pH reduction in the keeping water ([5]; up to 72 hours following the dose): 0.3 pH units

Structure (SMILES): O=S(=O)([O-])C(O)CCCC(O)S(=O)(=O)[O-].[Na+].[Na+] (centres unmarked) [NaHSO3 bisadduct of glutardialdehyde]
- reduction of the acute toxicity of ammonia in water animals, in particular ornamental fish [2]: especially effective

Structure (SMILES): O=S(=O)([O-])C(O)CCC(O)S(=O)(=O)[O-].[Na+].[Na+] (centres unmarked) [NaHSO3 bisadduct of succindialdehyde]
- reduction of the acute toxicity of ammonia in water animals, in particular ornamental fish [2]: show the desired reduction of the acute toxicity of ammonia

Structure (SMILES): O=S(=O)([O-])C(O)CO.[Na+] (centres unmarked) [NaHSO3 monoadduct of glycolaldehyde]
- reduction of the acute toxicity of ammonia in water animals, in particular ornamental fish [2]: show the desired reduction of the acute toxicity of ammonia
